In patent US7238813B2, “Chemical compounds” (Smithkline Beecham Corporation, priority 2000, dated 2007):
Counter-ions that a name gives are not always drawn.

Experiments:
[1] = target: T1, GST-TIE2 (intracellular domains of human TIE2) (Homo sapiens, UniProt Q02763); assay: TIE-2 enzyme assay (TIE2-E), LANCE method; format: biochemical; details: 80 uM ATP
T1 construct: made in house
Procedure: TIE-2Enzyme Assay (TIE2-E)
The TIE-2 enzyme assay used the LANCE method (Wallac) and GST-TIE2, baculovirus expressed recombinant constructs of the intracellular domains of human TIE2 (amino acids 762–1104, GenBank Accession # L06139) tagged by GST). […] This peptide phosphorylation was detected using the following procedure: for enzyme preactivation, GST-TIE2 was incubated for 30 mins at room temperature with 2 mM ATP, 5 mM MgCl2 and 12.5 mM DTT in 22.5 mM HEPES buffer (pH7.4). Preactivated GST-TIE2 was incubated for 30 mins at room temperature in 96 well plates with 1 μM D1-15 peptide, 80 uM ATP, 10 mM MgCl2, 0.1 mg/ml BSA and the test compound (diluted from a 10 mM stock in DMSO, final DMSO concentration was 2.4%) in 1 mM HEPES (pH7.4). The reaction was stopped by the addition of EDTA (final concentration 45 mM). Streptavidin linked-APC (allophycocyanin, Molecular Probe) and Europium-labeled anti-phosphorylated tyrosine antibody (Wallac) were then added at the final concentration of 17 μg/well and 2.1 μg/well, respectively. The APC signal was measured using an ARVO multilabel counter. (Wallac Berthold Japan). The percent inhibition of activity was calculated relative to blank control wells. The concentration of test compound that inhibits 50% of activity (IC50) was interpolated using nonlinear regression (Levernberg-Marquardt) and the equation, y=Vmax (1−x/(K+x))+Y2, where “K” was equal to the IC50. The IC50 values were converted to pIC50 values, i.e., −log IC50 in Molar concentration.

[2] = target: T2, TIE2 intracellular domain/c-fms extracellular domain (TIE2/c-fms) chimeric protein expressing mouse 3T3 cells (Homo sapiens, UniProt Q02763); assay: TIE-2 autophosphorylation assay (TIE2-C), ELISA; format: cell-based; details: TIE2/c-fms 3T3 cells, MCSF activation
T2 construct: a TIE2 intracellular domain/c-fms extracellular domain (TIE2/c-fms) chimeric protein; expressed in transfected cells; host or cells: mouse 3T3 cells
T2 sequence (Q02763 770-1124 limits assumed, change not shown): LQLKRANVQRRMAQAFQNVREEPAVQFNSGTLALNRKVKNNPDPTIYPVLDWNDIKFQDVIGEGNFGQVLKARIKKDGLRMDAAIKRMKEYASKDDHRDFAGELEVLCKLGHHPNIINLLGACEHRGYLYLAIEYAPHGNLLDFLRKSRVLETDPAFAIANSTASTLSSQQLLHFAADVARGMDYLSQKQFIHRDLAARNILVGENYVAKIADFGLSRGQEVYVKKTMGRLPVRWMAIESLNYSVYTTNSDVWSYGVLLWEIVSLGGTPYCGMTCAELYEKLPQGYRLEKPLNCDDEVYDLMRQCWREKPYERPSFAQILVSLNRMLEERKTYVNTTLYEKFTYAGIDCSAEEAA
Procedure: TIE-2 Autophosphorylation Assay (TIE2-C)
The TIE-2 autophosphorylation assay used an ELISA method and a TIE2 intracellular domain/c-fms extracellular domain (TIE2/c-fms) chimeric protein expressing mouse 3T3 cells. This assay measured the autophosphorylation level of TIE2 protein expressed in cells. The cells were cultured in high glucose DMEM (Sigma) containing 10% serum at 37° C. in a humidified 10% CO2, 90% air incubator. The test compound (diluted from a 10 mM stock in DMSO, final DMSO concentration was 0.1%) was incubated with TIE2/c-fms expressing cells for 1 hr in serum free DMEM in 96 well plates followed by the activation of TIE2/c-fms receptor using c-fms ligand, MCSF (macrophage colony stimulating factor). The culture media was removed by aspiration and the cells incubated for at least 30 mins on ice with lysis buffer containing 137 mM NaCl, 2 mM EDTA, 10% glycerol, […] sodium ortho vanadate and complete protease inhibitor cocktail (Roche) in 20 mM Tris-HCl (pH8.0). The cell extracts were transferred into Rat anti-c-fms antibody coated 96 well plates and incubated for 12 hrs at 4° C. The extracts were removed by aspiration and the plate was incubated with biotinylated anti-phosphotyrosine antibody, PT66 (Sigma) and then with HRP (Horseradish Peroxidase)-labeled streptavidin (PIERCE). The optical density at 450 nm derived from HRP catalyzed TMB was measured with an ARVO multilabel counter. (Wallac Berthold Japan). The percent inhibition of activity was calculated relative to blank control wells. The concentration of test compound that inhibits 50% of activity (IC50) was interpolated using nonlinear regression (Levernberg-Marquardt) and the equation, y=Vmax (1−x/(K+x))+Y2, where “K” was equal to the IC50. The IC50 values were converted to pIC50 values, i.e., −log IC50 in Molar concentration.

GST-VEGFR2 = target: T3, GST-VEGFR2 (Homo sapiens, UniProt P35968); assay: VEGF-R2 enzyme assay (VEGF-E), LANCE method; format: biochemical; details: 75 μM ATP
T3 construct: GST-VEGFR2, baculovirus expressed recombinant constructs of the intracellular domains of human TIE2 tagged by GST; made in house
T3 sequence (P35968 786-1356 limits assumed): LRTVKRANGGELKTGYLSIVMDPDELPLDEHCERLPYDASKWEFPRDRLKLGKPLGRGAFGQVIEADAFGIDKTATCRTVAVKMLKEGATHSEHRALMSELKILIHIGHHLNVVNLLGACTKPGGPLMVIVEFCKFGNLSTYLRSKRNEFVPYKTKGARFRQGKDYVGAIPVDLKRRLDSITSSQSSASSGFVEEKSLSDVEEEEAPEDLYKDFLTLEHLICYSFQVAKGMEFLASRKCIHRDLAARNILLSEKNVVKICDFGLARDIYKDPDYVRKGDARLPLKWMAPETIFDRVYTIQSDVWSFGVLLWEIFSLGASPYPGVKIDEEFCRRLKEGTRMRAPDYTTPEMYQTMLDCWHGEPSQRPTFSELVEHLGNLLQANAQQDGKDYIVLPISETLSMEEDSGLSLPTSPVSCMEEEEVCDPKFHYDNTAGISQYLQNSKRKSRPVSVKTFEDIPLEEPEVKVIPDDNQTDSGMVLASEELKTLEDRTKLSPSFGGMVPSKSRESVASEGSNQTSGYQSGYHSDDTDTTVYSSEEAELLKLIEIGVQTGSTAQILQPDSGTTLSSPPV
Procedure: VEGF-R2 Enzyme Assay (VEGF-E)
The VEGF enzyme assay used the LANCE method (Wallac) and GST-VEGFR2, baculovirus expressed recombinant constructs of the intracellular domains of human […] tagged by GST. […] The reaction was stopped by the addition of EDTA (final concentration 50 mM). Streptavidin linked-APC (allophycocyanin, Molecular Probe) and Europium-labeled anti-phosphorylated tyrosine antibody (Wallac) were then added at the final concentration of 15 nM and 1 nM, respectively. The APC signal was measured using an ARVO multilabel counter (Wallac Berthold, Japan). The percent inhibition of activity was calculated relative to blank control wells. The concentration of test compound that inhibits 50% of activity (IC50) was interpolated using nonlinear regression (Levernberg-Marquardt) and the equation, y=Vmax (1−x/(K+x))+Y2, where “K” was equal to the IC50. The IC50 values were converted to pIC50 values, i.e., −log IC50 in Molar concentration.

T1 sequence (Q02763 762-1104): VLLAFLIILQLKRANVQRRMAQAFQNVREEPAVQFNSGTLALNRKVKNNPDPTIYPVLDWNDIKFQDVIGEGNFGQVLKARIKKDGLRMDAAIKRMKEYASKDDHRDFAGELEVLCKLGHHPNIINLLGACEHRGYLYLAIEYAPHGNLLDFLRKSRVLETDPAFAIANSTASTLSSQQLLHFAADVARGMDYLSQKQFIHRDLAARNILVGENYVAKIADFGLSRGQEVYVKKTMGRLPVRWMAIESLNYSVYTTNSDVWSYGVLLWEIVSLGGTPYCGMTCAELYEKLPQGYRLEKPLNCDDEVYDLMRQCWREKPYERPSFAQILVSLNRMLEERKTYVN

SMILES	IC50 [1] [nM]	IC50 [2] [nM]	IC50 (GST-VEGFR2) [nM]
CCc1cccc(NC(=O)Nc2cccc(Oc3ccc4[nH]c(NC(=O)OC)nc4c3)c2)c1 [Example 16, Methyl N-(5-(3-((3-ethylphenyl)aminocarbonylamino)phenoxy)-1H-benzimidazol-2-yl)carbamate]	< 100	< 100	< 100
CCc1cccc(NC(=O)Nc2ccc(Oc3ccc4[nH]c(NC(=O)OC)nc4c3)nc2)c1 [Example 39, Methyl N-(5-(5-((3-ethylphenyl)aminocarbonylamino)-2-pyridyloxy)-1H-benzimidazol-2-yl)carbamate]	100 to 1000	100 to 1000	100 to 1000
COC(=O)Nc1nc2ccc(Oc3cccc(NC(=O)Nc4cc(C(F)(F)F)ccc4Cl)c3)cc2[nH]1 [Example 52, Methyl N-(5-(3-((2-chloro-5-(trifluoromethyl)phenyl)aminocarbonylamino)phenoxy)-1H-benzimidazol-2-yl)carbamate hydrochloride]	< 100	100 to 1000	< 100
COC(=O)Nc1nc2cc(Sc3ccc(NC(=O)Nc4cc(Cl)ccc4Cl)cc3)ccc2[nH]1 [Example 57, Methyl N-(5-(4-((2,5-dichlorophenyl)aminocarbonylamino)phenylthio)-1H-benzimidazol-2-yl)carbamate]	< 100	100 to 1000	
COC(=O)Nc1nc2c(Br)cc(Oc3ccc(NC(=O)Nc4cc(C(F)(F)F)ccc4F)cc3)cc2s1.Cl [Example 65, Methyl N-(4-bromo-6-(4-((6-fluoro-3-(trifluoromethylphenyl)aminocarbonylamino)phenoxy)benzthiazol-2-yl)carbamate hydrochloride]	< 100	< 100	< 100
COC(=O)Nc1nc2ncc(Oc3ccc(NC(=O)Nc4cc(C(F)(F)F)ccc4Cl)cc3)cc2[nH]1 [Example 73, Methyl N-(6-(4-((2-chloro-5-(trifluoromethyl)phenyl)aminocarbonylamino)phenoxy)-3,4-diaza-1H-indole-2-yl)carbamate dihydrochloride]	100 to 1000	100 to 1000	< 100
COC(=O)Nc1nc2cc([S+]([O-])c3ccc(NC(=O)Nc4cc(Cl)ccc4Cl)cc3)ccc2[nH]1 (centres unmarked) [Example 79, Methyl N-(5-(4-((2,5-dichlorophenyl)aminocarbonylamino)phenylsulfinyl)-1H-benzimidazol-2-yl)carbamate]	100 to 1000	100 to 1000	
O=C(Nc1ccc(Oc2ccc3nc(NC(=O)c4ccc(-n5cccc5)cc4)[nH]c3c2)cc1)Nc1cc(C(F)(F)F)ccc1F [Example 90, N-(5-(4-((2-Fluoro-5-(trifluoromethyl)phenyl)aminocarbonylamino)phenoxy)-1H-benzimidazol-2-yl)-4-(pyrrol-1-yl)benzamide]	< 100	1000 to 10000	< 100
O=C(Nc1ccc(Oc2ccc3nc(NC(=O)c4c[nH]c5ccccc45)[nH]c3c2)cc1)Nc1cc(C(F)(F)F)ccc1F [Example 95, N-(5-(4-((2-Fluoro-5-(trifluoromethyl)phenyl)aminocarbonylamino)phenoxy)-1H-benzimidazol-2-yl)(1H-indole-3-carboxamide)]	< 100	100 to 1000	< 100
O=C(Nc1ccc(Oc2ccc3[nH]c(NC(=O)c4ccccc4)nc3c2)cc1)Nc1cc(C(F)(F)F)ccc1F [Example 99, N-(5-(4-((2-Fluoro-5-(trifluoromethyl)phenyl)aminocarbonylamino)phenoxy)-1H-benzimidazol-2-yl)benzamide]	< 100	100 to 1000	
O=C(Nc1ccc(Oc2ccc3nc(NC(=O)c4cccs4)[nH]c3c2)cc1)Nc1cc(C(F)(F)F)ccc1F [Example 100, N-(5-(4-((2-Fluoro-5-(trifluoromethyl)phenyl)aminocarbonylamino)phenoxy)-1H-benzimidazol-2-yl)-2-thiophenecarboxamide]	< 100	< 100	< 100
CN1CCN(CCNc2nc3cc(Oc4ccc(NC(=O)Nc5cc(C(F)(F)F)ccc5F)cc4)ccc3[nH]2)CC1 [Example 104, 2-(2-(4-Methyl-1-piperazino)ethylamino)-5-(4-((2-fluoro-5-(trifluoromethyl)phenyl)aminocarbonylamino)phenoxy)-1H-benzimidazole]	100 to 1000	100 to 1000	< 100
CN(C)CCNc1nc2cc(Oc3ccc(NC(=O)Nc4cc(C(F)(F)F)ccc4F)cc3)ccc2[nH]1 [Example 105, 2-(2-(Dimethylamino)ethylamino)-5-(4-((2-fluoro-5-(trifluoromethyl)phenyl)aminocarbonylamino)phenoxy)-1H-benzimidazole]	100 to 1000	1000 to 10000	< 100
CN1CCN(CCCNc2nc3ccc(Oc4ccc(NC(=O)Nc5cc(C(F)(F)F)ccc5F)cc4)cc3[nH]2)CC1 [Example 106, 2-(3-(4-methyl-1-piperazino)propylamino)-5-(4-((2-fluoro-5-(trifluoromethyl)phenyl)aminocarbonylamino)phenoxy)-1H-benzimidazole]	100 to 1000	100 to 1000	< 100
COC(=O)Nc1nc2ccc(Oc3ccc(NC(=O)Nc4cc(C(F)(F)F)ccc4F)c[n+]3[O-])cc2[nH]1 [Example 107, Methyl N-(5-(5-((2-fluoro-5-(trifluoromethyl)phenyl)aminocarbonylamino)-1-oxo-2-pyridyloxy)-1H-benzimidazol-2-yl)carbamate]	< 100	100 to 1000	100 to 1000
CC(=O)Nc1nc2ccc(Oc3ccc(NC(=O)Nc4cc(C(F)(F)F)ccc4F)nc3)cc2n1Cc1ccccc1 [Example 110]	< 100	100 to 1000	100 to 1000
COC(=O)Nc1nc2cc(Oc3ccc(NC(=O)Nc4cc(Cl)ccc4Cl)cn3)ccc2[nH]1 [Example 112, Methyl N-(5-(5-((2,5-dichlorophenyl)aminocarbonylamino)-2-pyridyloxy)-1H-benzimidazol-2-yl)carbamate dihydrochloride]	100 to 1000	100 to 1000	100 to 1000
COC(=O)Nc1nc2cc(Oc3ccc(NC(=S)Nc4cccc(Cl)c4)cc3)ccc2[nH]1 [Example 184, Methyl N-(5-(4-((3-chlorophenyl)aminothiocarbonylamino)phenoxy)-1H-benzimidazol-2-yl)carbamate]	1000 to 10000	1000 to 10000	< 100
COC(=O)Nc1nc2ccc(Oc3ccc(NC(=S)Nc4cccc(C(F)(F)F)c4)cc3)cc2[nH]1 [Example 186, Methyl N-(5-(4-((3-(trifluoromethyl)phenyl)aminothiocarbonylamino)phenoxy)-1H-benzimidazol-2-yl)carbamate]	1000 to 10000	100 to 1000	
